Test systems include A498; ACHN; BT-549; COLO 205; HL-60; KM12; M14; MCF7; MDA-N; MOLT-4; Malme-3M; NCI-H522; SF-295; SK-MEL-5; SN12C; SNB-19; SNB-75; T47D; UACC-62.
What all share (experiment): NCI anticancer screen, dose series, 48 h

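Briefly, cells in 96-well plates were exposed to five compound concentrations for 48 h, and endpoints were estimated by linear interpolation. Abbreviation: GI50, concentration required for 50% inhibition of growth.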 Calls of active or inactive are those of the source. Cut-off read from the data, not from the text of the source: active = GI50 up to about 1.1 µM and inactive = higher.

`NC(=O)c1ccc(S(=O)(=NS(=O)(=O)c2ccccc2)c2ccc(C(N)=O)cc2)cc1`: the GI50 with A498, in the assay with ACHN, with BT-549, in the assay with COLO 205, with HL-60 and in the assay with KM12 was > 100 µM (inactive) in each case. The GI50 with M14, in the assay with MCF7, in the assay with MDA-N, in the assay on MOLT-4, in the assay on Malme-3M and in the assay with NCI-H522 was > 100 µM (inactive) each time. The GI50 in the assay on SF-295, in the assay on SK-MEL-5, in the assay on SN12C, with SNB-19, in the assay with SNB-75 and with T47D was > 100 µM (inactive) throughout. In the assay with UACC-62, the GI50 was > 100 µM (inactive).
On to `C[C@]12CC[C@H]3[C@@H](CCC4=CC(=O)C=C[C@@]43OC(=O)C(F)(F)F)[C@@H]1CCC2=O`, for which the GI50 in the assay with A498, in the assay with ACHN, with BT-549, in the assay on COLO 205, with HL-60 and in the assay on KM12 was > 100 µM (inactive) in each case. For the same molecule, the GI50 is > 100 µM (inactive) with M14; > 100 µM (inactive) in the assay on MCF7; > 100 µM (inactive) with MDA-N; > 95.5 µM (inactive) in the assay on MOLT-4; 0.558 µM (active) with Malme-3M; > 84.1 µM (inactive) in the assay with NCI-H522. For the same molecule, the GI50 in the assay with SF-295 is > 100 µM (inactive); with SK-MEL-5, > 100 µM (inactive); in the assay with SN12C, > 100 µM (inactive); in the assay with SNB-19, > 33.6 µM (inactive); in the assay with SNB-75, > 100 µM (inactive); in the assay with T47D it was > 100 µM (inactive). The GI50 with UACC-62 is > 85.5 µM (inactive).
Consider `OCC1NC(COC2OC(CO)C(O)C(O)C2O)C(O)C(O)C1O` (stereo unspecified), for which the GI50 in the assay on A498, in the assay with ACHN, with BT-549, in the assay with COLO 205, in the assay on HL-60 and in the assay with KM12 was > 100 µM (inactive) throughout. For the same molecule, the GI50 with M14, in the assay with MCF7, in the assay with MDA-N, in the assay with MOLT-4, in the assay with Malme-3M and with NCI-H522 was > 100 µM (inactive) throughout. The GI50 with SF-295, in the assay with SK-MEL-5, in the assay with SN12C, with SNB-19, in the assay with SNB-75 and in the assay with T47D was > 100 µM (inactive) in each case. In the assay on UACC-62, the GI50 was > 100 µM (inactive).
For `NCC(=O)NC(CO)C(=O)O` (stereo unspecified), the GI50 with A498, in the assay with ACHN, in the assay on BT-549, with COLO 205, in the assay with HL-60 and in the assay with KM12 was > 100 µM (inactive) throughout. In addition, the GI50 is > 100 µM (inactive) in the assay with M14; > 100 µM (inactive) in the assay on MCF7; > 100 µM (inactive) with MDA-N; > 27.5 µM (inactive) in the assay with MOLT-4; > 100 µM (inactive) in the assay on Malme-3M; > 100 µM (inactive) in the assay on NCI-H522. The GI50 in the assay with SF-295, with SK-MEL-5, in the assay with SN12C, in the assay on SNB-19, in the assay on SNB-75 and with T47D was > 100 µM (inactive) throughout. Besides, the GI50 with UACC-62 is > 100 µM (inactive).

(Values after ChEMBL document CHEMBL1201862, “PubChem BioAssay data set” (2004).)
